Measured values: ChEMBL document CHEMBL4118122, “Identification and biological evaluation of thiazole-based inverse agonists of RORγt” (Bioorg Med Chem Lett, 2018)

What was measured:
[1] = target: Proto-oncogene tyrosine-protein kinase Src (Homo sapiens) (UniProt P12931); test: Inhibition of recombinant full length C-terminal His-tagged human Src cytoplasmic domain expressed in baculovirus expression system at 10 uM in presence of ATP relative to control
[2] = target: Adenosine receptor A3 (Homo sapiens) (UniProt P0DMS8); test: Displacement of [125I]AB-MECA from human recombinant adenosine A3 receptor at 10 uM after 120 mins by scintillation counting analysis relative to control
[3] = target: Kappa-type opioid receptor (Homo sapiens, UniProt P41145); test: Displacement of [3H]U69593 from human kappa receptor after 60 mins by scintillation counting analysis
[4] = target: C-C chemokine receptor type 1 (Homo sapiens) (UniProt P32246); test: Displacement of [125I]MIP-1alpha from human recombinant CCR1 receptor at 1 uM after 120 mins by scintillation counting analysis relative to control
[5] = target: Substance-K receptor (Homo sapiens) (UniProt P21452); test: Displacement of [125I]NKA from human recombinant NK2 receptor at 1 uM after 60 mins by scintillation counting analysis relative to control
[6] = target: Rho-associated protein kinase 1 (Homo sapiens) (UniProt Q13464); test: Inhibition of recombinant N-terminal GST-tagged human ROCK1 catalytic domain (1 to 535 residues) expressed in baculovirus expression system at 10 uM in presence of ATP relative to control
[7] = target: Tyrosine-protein kinase JAK2 (Homo sapiens) (UniProt O60674); test: Inhibition of recombinant GST-tagged human JAK2 catalytic domain (809 to 1153 residues) expressed in baculovirus expression system at 10 uM in presence of ATP relative to control
[8] = target: Adenosine receptor A3 (Homo sapiens) (UniProt P0DMS8); test: Displacement of [125I]AB-MECA from human recombinant adenosine A3 receptor at 1 uM after 120 mins by scintillation counting analysis relative to control
[9] = target: RAC-alpha serine/threonine-protein kinase (Homo sapiens) (UniProt P31749); test: Inhibition of recombinant full length His-tagged human AKT1 expressed in baculovirus expression system at 10 uM in presence of ATP relative to control
D(1A) dopamine receptor = D(1A) dopamine receptor (Homo sapiens, UniProt P21728); test: Displacement of [3H]-SCH 23390 from human recombinant dopamine D1 receptor after 60 mins by scintillation counting analysis
[10] = target: T1, 5-hydroxytryptamine receptor 6 (Homo sapiens, UniProt P50406); test: Displacement of [3H]LSD from human recombinant 5-HT6 receptor at 1 uM after 120 mins by scintillation counting analysis relative to control
[11] = target: T2, Beta-1 adrenergic receptor (Homo sapiens, UniProt P08588); test: Displacement of [3H](-)CGP 12177 from human beta1 adrenoceptor after 60 mins by scintillation counting analysis
[12] = Cmax in Sprague-Dawley rat at 5 mg/kg, po; assay type: ADME, organism-based; set-up: dose 5 mg/kg, route oral; conditions: in vivo
[13] = target: 5-hydroxytryptamine receptor 2A (Homo sapiens, UniProt P28223); test: Displacement of [3H]ketanserin human recombinant 5-HT2A receptor at 1 uM after 60 mins by scintillation counting analysis relative to control
[14] = target: T1, 5-hydroxytryptamine receptor 6; test: Displacement of [3H]LSD from human recombinant 5-HT6 receptor at 10 uM after 120 mins by scintillation counting analysis relative to control
[15] = target: Small conductance calcium-activated potassium channel (Rattus norvegicus) (UniProt P70604+P70606+P70605); test: Displacement of [125I]apamin from rat brain SkCa channel at 10 uM after 60 mins by scintillation counting analysis relative to control
[16] = target: T3, 5-hydroxytryptamine receptor 7 (Homo sapiens, UniProt P34969); test: Displacement of [3H]LSD from human recombinant 5-HT7 receptor after 120 mins by scintillation counting analysis
[17] = target: Neuropeptide Y receptor type 1 (Homo sapiens) (UniProt P25929); test: Displacement of [125I]peptide YY from human Y1 receptor at 1 uM after 120 mins by scintillation counting analysis relative to control
Histamine H2 receptor = Histamine H2 receptor (Homo sapiens, UniProt P25021); test: Displacement of [125I]APT from human recombinant histamine H2 receptor at 1 uM after 120 mins by scintillation counting analysis relative to control
[18] = target: 5-hydroxytryptamine receptor 5A (Homo sapiens, UniProt P47898); test: Displacement of [3H]LSD from human recombinant 5-HT5a receptor at 10 uM after 120 mins by scintillation counting analysis relative to control
[19] = target: T3, 5-hydroxytryptamine receptor 7; test: Displacement of [3H]LSD from human recombinant 5-HT7 receptor at 1 uM after 120 mins by scintillation counting analysis relative to control
[20] = target: 5-hydroxytryptamine receptor 1A (Homo sapiens) (UniProt P08908); test: Displacement of [3H]8-OH-DPAT from recombinant human 5-HT1A receptor at 10 uM after 60 mins by scintillation counting analysis relative to control
[21] = target: Serine/threonine-protein kinase Chk1 (Homo sapiens) (UniProt O14757); test: Inhibition of recombinant full length His-tagged human CHK1 expressed in baculovirus expression system at 10 uM in presence of ATP relative to control
[22] = target: Aurora kinase A (Homo sapiens) (UniProt O14965); test: Inhibition of recombinant full length His-tagged human Aurora A expressed in baculovirus expression system at 10 uM in presence of ATP relative to control
Adenosine receptor A2a = Adenosine receptor A2a (Homo sapiens, UniProt P29274); test: Displacement of [3H]-CGS 21680 from human recombinant adenosine A2A receptor after 120 mins by scintillation counting analysis
[23] = target: Protein kinase C beta type (Homo sapiens) (UniProt P05771); test: Inhibition of PKCbeta1 (unknown origin) at 10 uM in presence of ATP relative to control
[24] = target: Serine/threonine-protein kinase PAK 3 (Homo sapiens) (UniProt O75914); test: Inhibition of recombinant full length His-tagged human PAK3 expressed in baculovirus expression system at 10 uM in presence of ATP relative to control
[25] = target: Sodium-dependent noradrenaline transporter (Homo sapiens, UniProt P23975); test: Displacement of [3H]nisoxetine from recombinant human norepinephrine transporter after 120 mins by scintillation counting analysis
Mu-type opioid receptor = Mu-type opioid receptor (Homo sapiens, UniProt P35372); test: Displacement of [3H]DAMGO from human recombinant mu receptor at 10 uM after 120 mins by scintillation counting analysis relative to control
[26] = target: T2, Beta-1 adrenergic receptor; test: Displacement of [3H](-)CGP 12177 from human beta1 adrenoceptor at 1 uM after 60 mins by scintillation counting analysis relative to control
[27] = target: 5-hydroxytryptamine receptor 2B (Homo sapiens, UniProt P41595); test: Displacement of [125I]+/-DOI from human recombinant 5-HT2B receptor at 1 uM after 60 mins by scintillation counting analysis relative to control
[28] = target: Inhibitor of nuclear factor kappa-B kinase subunit beta (Homo sapiens) (UniProt O14920); test: Inhibition of recombinant full length GST-tagged human IKKbeta expressed in baculovirus expression system at 10 uM in presence of ATP relative to control

T3 sequence (P34969 whole entry): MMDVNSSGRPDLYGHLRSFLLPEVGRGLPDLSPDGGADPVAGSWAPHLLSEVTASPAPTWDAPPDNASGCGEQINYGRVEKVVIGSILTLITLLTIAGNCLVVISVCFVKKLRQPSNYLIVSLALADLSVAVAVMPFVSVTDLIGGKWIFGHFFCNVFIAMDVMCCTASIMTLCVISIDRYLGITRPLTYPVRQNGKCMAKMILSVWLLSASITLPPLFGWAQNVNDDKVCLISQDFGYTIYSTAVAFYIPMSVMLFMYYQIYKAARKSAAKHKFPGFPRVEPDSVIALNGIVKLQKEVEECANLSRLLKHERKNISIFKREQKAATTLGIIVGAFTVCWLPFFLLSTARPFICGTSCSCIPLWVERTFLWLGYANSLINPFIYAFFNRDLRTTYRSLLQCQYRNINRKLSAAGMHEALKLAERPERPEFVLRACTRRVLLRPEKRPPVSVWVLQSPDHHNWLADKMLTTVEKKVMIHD
Chain of Adenosine receptor A3 (Homo sapiens) (P0DMS8 whole entry): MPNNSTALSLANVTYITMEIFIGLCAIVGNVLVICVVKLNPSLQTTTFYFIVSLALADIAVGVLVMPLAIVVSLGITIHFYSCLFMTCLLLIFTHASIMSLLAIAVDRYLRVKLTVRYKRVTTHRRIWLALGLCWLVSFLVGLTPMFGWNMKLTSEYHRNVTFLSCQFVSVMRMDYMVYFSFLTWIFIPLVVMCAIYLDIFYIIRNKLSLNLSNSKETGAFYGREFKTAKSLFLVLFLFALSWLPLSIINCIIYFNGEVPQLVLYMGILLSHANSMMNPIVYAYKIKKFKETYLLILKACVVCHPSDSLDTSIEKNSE
T1 sequence (P50406 whole entry): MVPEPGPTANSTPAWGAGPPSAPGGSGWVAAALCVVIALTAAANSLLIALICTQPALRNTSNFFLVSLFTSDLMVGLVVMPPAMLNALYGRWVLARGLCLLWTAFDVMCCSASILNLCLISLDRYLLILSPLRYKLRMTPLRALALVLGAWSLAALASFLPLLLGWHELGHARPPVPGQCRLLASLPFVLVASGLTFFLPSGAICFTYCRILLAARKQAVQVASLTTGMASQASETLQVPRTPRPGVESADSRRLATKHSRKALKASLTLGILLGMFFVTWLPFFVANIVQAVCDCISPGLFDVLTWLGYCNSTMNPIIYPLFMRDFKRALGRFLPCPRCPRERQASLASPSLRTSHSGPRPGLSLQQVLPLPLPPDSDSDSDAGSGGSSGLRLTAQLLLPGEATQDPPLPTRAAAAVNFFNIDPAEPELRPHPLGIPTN
Chain of Mu-type opioid receptor (P35372 whole entry): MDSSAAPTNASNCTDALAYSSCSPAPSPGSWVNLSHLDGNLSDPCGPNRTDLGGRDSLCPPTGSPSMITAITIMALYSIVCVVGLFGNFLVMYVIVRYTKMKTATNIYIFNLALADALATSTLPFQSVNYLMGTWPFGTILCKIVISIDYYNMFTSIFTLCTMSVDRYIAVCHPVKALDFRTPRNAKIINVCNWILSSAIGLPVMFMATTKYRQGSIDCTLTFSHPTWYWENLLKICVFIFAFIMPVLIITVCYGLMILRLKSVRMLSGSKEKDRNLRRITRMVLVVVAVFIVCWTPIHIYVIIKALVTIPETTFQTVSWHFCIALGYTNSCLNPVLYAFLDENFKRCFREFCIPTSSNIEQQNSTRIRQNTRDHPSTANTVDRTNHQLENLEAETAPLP
Chain of 5-hydroxytryptamine receptor 1A (Homo sapiens) (P08908 whole entry): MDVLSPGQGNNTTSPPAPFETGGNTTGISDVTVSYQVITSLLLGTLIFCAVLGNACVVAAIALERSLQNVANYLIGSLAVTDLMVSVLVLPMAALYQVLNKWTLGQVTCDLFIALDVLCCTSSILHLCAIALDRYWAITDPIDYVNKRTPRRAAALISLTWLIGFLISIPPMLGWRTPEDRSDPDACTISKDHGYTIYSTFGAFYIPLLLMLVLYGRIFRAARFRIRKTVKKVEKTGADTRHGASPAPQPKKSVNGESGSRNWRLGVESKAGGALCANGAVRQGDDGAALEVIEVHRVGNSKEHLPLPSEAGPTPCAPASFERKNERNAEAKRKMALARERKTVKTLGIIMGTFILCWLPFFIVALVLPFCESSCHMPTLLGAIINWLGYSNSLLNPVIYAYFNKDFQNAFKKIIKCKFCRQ
Chain of Histamine H2 receptor (P25021 whole entry): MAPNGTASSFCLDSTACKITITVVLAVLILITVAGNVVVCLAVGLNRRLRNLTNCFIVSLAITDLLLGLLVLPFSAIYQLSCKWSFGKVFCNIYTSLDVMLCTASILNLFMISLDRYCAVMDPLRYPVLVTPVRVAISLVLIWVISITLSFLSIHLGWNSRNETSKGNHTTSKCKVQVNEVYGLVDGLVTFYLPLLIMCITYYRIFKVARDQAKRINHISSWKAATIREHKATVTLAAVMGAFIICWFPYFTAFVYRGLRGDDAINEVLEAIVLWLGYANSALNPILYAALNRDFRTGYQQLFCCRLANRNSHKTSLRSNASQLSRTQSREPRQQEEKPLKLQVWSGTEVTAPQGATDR
Chain of Substance-K receptor (Homo sapiens) (P21452 whole entry, the tested form may be a part): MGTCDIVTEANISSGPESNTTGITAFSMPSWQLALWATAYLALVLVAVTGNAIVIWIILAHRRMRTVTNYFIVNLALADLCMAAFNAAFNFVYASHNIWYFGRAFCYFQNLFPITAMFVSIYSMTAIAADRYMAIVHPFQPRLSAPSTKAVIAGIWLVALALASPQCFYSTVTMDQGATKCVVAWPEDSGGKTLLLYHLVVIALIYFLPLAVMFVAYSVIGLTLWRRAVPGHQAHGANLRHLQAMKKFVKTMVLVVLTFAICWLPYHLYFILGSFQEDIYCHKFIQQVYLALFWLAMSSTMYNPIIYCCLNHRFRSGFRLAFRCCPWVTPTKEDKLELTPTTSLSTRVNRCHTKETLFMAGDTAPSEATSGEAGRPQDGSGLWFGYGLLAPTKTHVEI
Chain of Aurora kinase A (Homo sapiens) (O14965 whole entry): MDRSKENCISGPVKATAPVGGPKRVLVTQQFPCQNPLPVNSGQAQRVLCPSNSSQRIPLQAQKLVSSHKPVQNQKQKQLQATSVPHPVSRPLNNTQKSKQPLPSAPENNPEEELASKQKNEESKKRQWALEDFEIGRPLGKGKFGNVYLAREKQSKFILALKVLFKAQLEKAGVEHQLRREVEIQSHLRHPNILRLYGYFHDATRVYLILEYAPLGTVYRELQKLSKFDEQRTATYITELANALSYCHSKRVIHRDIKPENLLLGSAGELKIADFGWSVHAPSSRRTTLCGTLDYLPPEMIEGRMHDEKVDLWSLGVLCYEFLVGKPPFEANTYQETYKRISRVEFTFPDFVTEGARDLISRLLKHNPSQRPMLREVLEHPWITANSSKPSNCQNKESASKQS
Chain of Serine/threonine-protein kinase Chk1 (Homo sapiens) (O14757 whole entry): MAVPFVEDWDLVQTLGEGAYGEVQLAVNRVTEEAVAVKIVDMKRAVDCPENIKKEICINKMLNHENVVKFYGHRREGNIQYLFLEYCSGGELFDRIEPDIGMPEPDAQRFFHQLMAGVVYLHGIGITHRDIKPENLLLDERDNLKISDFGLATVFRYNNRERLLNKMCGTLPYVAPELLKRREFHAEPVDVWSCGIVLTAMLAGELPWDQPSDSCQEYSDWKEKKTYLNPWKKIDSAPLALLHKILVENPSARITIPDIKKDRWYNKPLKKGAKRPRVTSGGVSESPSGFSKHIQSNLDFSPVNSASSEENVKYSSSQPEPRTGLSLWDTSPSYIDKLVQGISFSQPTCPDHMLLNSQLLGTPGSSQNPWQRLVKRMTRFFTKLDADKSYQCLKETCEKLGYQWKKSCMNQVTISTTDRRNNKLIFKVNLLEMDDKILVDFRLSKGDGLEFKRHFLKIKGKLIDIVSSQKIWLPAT
Chain of 5-hydroxytryptamine receptor 2B (P41595 whole entry): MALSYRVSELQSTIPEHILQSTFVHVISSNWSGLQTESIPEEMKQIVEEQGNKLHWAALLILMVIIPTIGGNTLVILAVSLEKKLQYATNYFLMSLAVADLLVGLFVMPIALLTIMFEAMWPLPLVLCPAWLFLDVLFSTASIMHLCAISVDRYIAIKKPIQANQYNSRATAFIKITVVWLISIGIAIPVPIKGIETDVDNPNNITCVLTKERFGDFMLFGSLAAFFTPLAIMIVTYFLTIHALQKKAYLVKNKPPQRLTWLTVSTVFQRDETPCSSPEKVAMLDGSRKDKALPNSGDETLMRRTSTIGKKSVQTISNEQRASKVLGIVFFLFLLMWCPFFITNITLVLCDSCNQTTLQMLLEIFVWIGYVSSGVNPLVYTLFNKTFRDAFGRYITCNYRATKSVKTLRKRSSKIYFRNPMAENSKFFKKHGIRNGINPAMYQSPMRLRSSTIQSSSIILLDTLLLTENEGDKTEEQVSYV
Chain of RAC-alpha serine/threonine-protein kinase (Homo sapiens) (P31749 whole entry): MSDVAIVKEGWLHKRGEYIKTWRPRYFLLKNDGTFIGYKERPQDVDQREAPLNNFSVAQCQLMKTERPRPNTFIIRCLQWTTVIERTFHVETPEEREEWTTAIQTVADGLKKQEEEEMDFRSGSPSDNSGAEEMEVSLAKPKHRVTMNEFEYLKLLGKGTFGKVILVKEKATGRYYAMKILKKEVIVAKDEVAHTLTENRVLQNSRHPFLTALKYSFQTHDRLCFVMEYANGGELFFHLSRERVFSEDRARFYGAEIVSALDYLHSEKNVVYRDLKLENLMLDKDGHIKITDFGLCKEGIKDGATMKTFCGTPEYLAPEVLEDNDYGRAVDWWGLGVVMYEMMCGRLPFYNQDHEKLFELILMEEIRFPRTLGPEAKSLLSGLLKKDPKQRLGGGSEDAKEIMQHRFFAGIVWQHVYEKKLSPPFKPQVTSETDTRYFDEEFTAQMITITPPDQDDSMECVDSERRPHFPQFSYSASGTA

With `CC(C)(C)NS(=O)(=O)c1ccc(-c2sc(C(=O)N[C@H]3C[C@H](C(=O)O)C3)nc2CC2CCCCC2)c2ccccc12` the inhibition [1] was -4%, the inhibition [2] was 81% and the IC50 [3] was 1.1 nM. The inhibition [4] was less than 10%, the inhibition [5] was less than 10% and the inhibition [6] was -10%. It also gave an inhibition [7] of 2%, an inhibition [8] of 24% and an inhibition [9] of -5%. The IC50 (D(1A) dopamine receptor) was 0.21 nM, the inhibition [10] was less than 10% and the IC50 [11] was 297 nM. For the same compound, the Cmax [12] was 130 ng/mL, the inhibition [13] was less than 10% and the inhibition [14] was 33%. For the same compound, the inhibition [15] was less than 10%, the IC50 [16] was 0.39 nM and the inhibition [17] was less than 10%. It also gave an inhibition (Histamine H2 receptor) of less than 10%, an inhibition [18] of 85% and an inhibition [19] of less than 10%. It also gave an inhibition [20] of 16%, an inhibition [21] of 1% and an inhibition [22] of -5%. It also gave an IC50 (Adenosine receptor A2a) of 9.2 nM, an inhibition [23] of -2% and an inhibition [24] of 5%. For the same compound, the IC50 [25] was 3.4 nM, the inhibition (Mu-type opioid receptor) was 12% and the inhibition [26] was less than 10%. The inhibition [27] was less than 10% and the inhibition [28] was -4%.
